Assays:
[1] = system: myocardiale Radio-Calciumaufnahme; assay: Cardioprotective effect: inhibition of isoprenaline-induced myocardial radio-calcium uptake in conscious rats (method of Arndts); format: in vivo, Ratten; settings: s.c. or p.o., dose that inhibits by 50 % the myocardial radio-calcium uptake caused by 30 mg/kg s.c. Isoprenalin
Text: Die cardioprotektive Wirkung wird auf folgende Weise bestimmt: Bekanntlich ist der mycardiale Ca⁺²-Gehalt ein Maß für die hypoxische bzw. die durch toxische Catecholamindosen hervorgerufene Herzschädigung (Higgins et al., Mol. Cell. Cardiol. 10: 427 - 438, 1984; Nakanishi et al., Am. J. Physiol. 242: 437 - 449, 1982; Fleckenstein, A., Vorträge der Erlanger Physiol. Tagung 1970, Ed. Keidel, Springer Verlag Berlin, Heidelberg, New York, 1971). Umgekehrt ist die Inhibition der hypoxischen oder Isoprenalin-bedingten myocardialen Calciumaufnahme ein Maß für die cardioprotektive Effektivität von Calciumantagonisten (Fleckenstein s.o.), von Calmodulininhibitoren (Higgins) und anderen Pharmaka, z.B. Betaadrenolytika (Arndts, Arzneimittelforschung 25: 1279 -1284, 1975).
Die cardioprotektive Wirkung wurde an wachen Ratten nach subcutaner oder peroraler Wirkstoffgabe anhand der von Arndts (s.o.) beschriebenen Methode festgestellt, und die Wirkungsstärke der Testsubstanzen als H₅₀-Wert angegeben; dieser Wert entspricht der Dosis, die die durch eine Gabe von 30 (mg/kg; s.c.) Isoprenalin bedingte, myocardiale Radio-Calciumaufnahme zu 50 % hemmt. Hier erwiesen sich die untersuchten neuen Verbindungen als ebenso wirksam wie Nifedipin.

Kaninchen-Aortenstreifen = assay: Calcium ion kinetics (45Ca2+ efflux) in rabbit aortic strips; settings: for Potenzierung des stimulierten Ca²⁺-Efflux: stimulation with 80 mM K⁺
Text: Bestimmung der Calcium-Ionenkinetik an Kaninchen-Aortenstreifen
Methode nach C. van Breemen, P. Aaronson, R. Loutzenheiser und K. Meisheri CHEST 78: 157s - 165s (1980) und R. Casteels & G. Droogman J. Physiol 317: 263 - 279 (1981)
Methode: Mit ⁴⁵Ca²⁺ geladene Aortenstreifen werden sequentiell äquilibriert in physiologischer Lösung. Dabei tauscht das intrazelluläre Ca²⁺ mit dem extrazellulären Ca²⁺ aus, das heißt im extrazellulären Bad ist das radioaktive ⁴⁵Ca²⁺ meßbar. Auf eine Stimulation mit 80 mM K⁺ oder 10⁻⁵ Mol/l Noradrenalin (NA) hin wird der Austausch beschleunigt. Dabei ist die im Bad ansteigende Radioaktivität ein Maß für den Ca²⁺-Efflux. So wird das Ausmaß der durch die Stimulation freigesetzten Ca²⁺ als Effluxrate bestimmt.

Isoliertes Rattenherz = assay: Isolated Langendorff rat heart, low-flow oxygen deficiency and reperfusion: time to onset of regular contractions; design: species or system Ratten; settings: concentration giving a significant reduction of the time to onset of regular contractions; infusion during O2 deficiency
Protocol: Die Untersuchungen am isolierten Langendorff-Herzen wurden nach O. Langendorff, Pflügers Arch. 61, 291 (1895) mit kleinen Abwandlungen ausgeführt:
Isoliertes Rattenherz, retrograde Perfusion über die Aorta. Elektrische Stimulation (300 Impulse/min. Impulsdauer Imsec.). Messung des linksventrikulär entwickelten Druckes mit flüssigkeitsgefülltem Latex-Ballon. Nach 20 min Aequilibrierung Auslösen eines Sauerstoff-Mangelzustandes mit 100-fach vermindertem Fluß durch Drosselung des Perfusionsflusses für 60 min, Rückkehr zu normalem Fluß bewirkt starken Anstieg der Grundspannung, unter Kontrollbedingungen setzt die Herztätigkeit nach 6 - 7 min unregelmäßig wieder ein, nach 15 -18 min rascher Übergang zu regelmäßigen Kontraktionen. Cardioprotektiv wirksame Verbindungen verkürzen die Zeit bis zum Einsetzen regelmäßiger Kontraktionen. Infusion der Testsubstanz (gelöst in unbegastem Perfusionsmedium) während des 0₂-Mangelzustandes herznah in das Perfusionssystem.
Die getesteten Verbindungen ergaben bei Anwendung in der unten angegebenen Konzentration eine signifikante Reduktion der Zeit bis zum Einsetzen regelmäßiger Kontraktionen.

Tieren = assay: Hypoxia tolerance test: survival of animals in a closed chamber; format: in vivo; settings: gas mixture 96,5 % nitrogen and 3,5 % oxygen; doses up to 30 mg/kg
[2] = Microiontophoresis (standard method)
Text: Die Mikrointophorese wurde gemäß Standardmethode durchgeführt.

[3] = Scopolamine-induced impairment of short-term memory (scopolamine dementia); format: in vivo; settings: Scopolamin 0,6 mg/kg i.p.
Text: In Vesuchen mit Einschränkung des Kurzzeitgedächtnisses bzw.

Molecule | H50-Wert [1] | Hypoxie (Tieren) | Scopolamin-Demenz ([3]; doses up to 30 mg/kg) | other results
3,4-Dihydro-6,7-dimethoxy-12-(2-methoxyethyl)-amino-pyridazino [4ʹ,5ʹ : 3,4] pyrrolo [2,1-a] isochinolin | 1,92 | – | – | –
3,4-Dihydro-6,7-dimethoxy-12-(3-dimethylaminopropyl)-aminopyridazino [4ʹ,5ʹ : 3,4]pyrrolo[2,1-a]isochinolin | 0,46 | wirksam (wirksam: Im Dosenbereich bis einschließlich 30 mg/kg zeigen in der mit Substanz behandelten Tiergruppe signifikant mehr Tiere den gewünschten Effekt als in der Kontrollgruppe.) | – | Potenzierung des stimulierten Ca²⁺-Efflux (Kaninchen-Aortenstreifen): 11%; Hemmung des stimulierten Ca²⁺-Efflux (Kaninchen-Aortenstreifen; stimulation with 10⁻⁵ Mol/l Noradrenalin (NA)): 19%; Konzentration (Isoliertes Rattenherz): 13,3 µg/ml; Mikroiontophorese [2]: wirksam (wirksam: Im Dosenbereich bis einschließlich 30 mg/kg zeigen in der mit Substanz behandelten Tiergruppe signifikant mehr Tiere den gewünschten Effekt als in der Kontrollgruppe.)
3,4-Dihydro-6,7-dimethoxy-12-benzylamino-pyridazino[4ʹ,5ʹ : 3,4] pyrrolo[2,1-a]isochinolin [Verbindung H] | – | – | wirksam (wirksam: Im Dosenbereich bis einschließlich 30 mg/kg zeigen in der mit Substanz behandelten Tiergruppe signifikant mehr Tiere den gewünschten Effekt als in der Kontrollgruppe.) | –
3,4-Dihydro-6,7-dimethoxy-12-ethylamino-pyridazino-[4ʹ,5ʹ : 3,4] pyrrolo [2,1-a] isochinolin [B] | – | wirksam (wirksam: Im Dosenbereich bis einschließlich 30 mg/kg zeigen in der mit Substanz behandelten Tiergruppe signifikant mehr Tiere den gewünschten Effekt als in der Kontrollgruppe.) | – | Potenzierung des stimulierten Ca²⁺-Efflux (Kaninchen-Aortenstreifen): 27%
3,4-Dihydro-6,7-dimethoxy-12-isopropylamino-pyridazino-[4ʹ,5ʹ : 3,4] pyrrolo [2,1-a] isochinolin | – | wirksam (wirksam: Im Dosenbereich bis einschließlich 30 mg/kg zeigen in der mit Substanz behandelten Tiergruppe signifikant mehr Tiere den gewünschten Effekt als in der Kontrollgruppe.) | – | –
12-Allylamino-3,4-dihydro-6,7-dimethoxy-pyridazino-[4ʹ,5ʹ : 3,4] pyrrolo[2,1-a]isochinolin | 2,42 | – | – | –
COc1ccc([C@@H]2Sc3ccccc3N(CCN(C)C)C(=O)[C@@H]2OC(C)=O)cc1 [Diltiazem, reference compound] | – | unwirksam | unwirksam | –
COC(=O)C1=C(C)NC(C)=C(C(=O)OC)C1c1ccccc1[N+](=O)[O-] [Nifedipin] | – | unwirksam | – | Scopolamin-Demenz ([3]; dose 1 mg/kg): wirksam (wirksam: Im Dosenbereich bis einschließlich 30 mg/kg zeigen in der mit Substanz behandelten Tiergruppe signifikant mehr Tiere den gewünschten Effekt als in der Kontrollgruppe.); Scopolamin-Demenz ([3]; dose 3-30): unwirksam
COc1ccc(CCN(C)CCCC(C#N)(c2ccc(OC)c(OC)c2)C(C)C)cc1OC (stereo not drawn) [Verapamil] | – | – | unwirksam | –

Source: patent publication EP0252299A2, “Use of 12-amino-pyridazino[4',5':3,4]pyrrolo[2,1-a]isoquinolines in the preparation of cardioprotective and neuroprotective agents” (BOEHRINGER INGELHEIM KG, priority 1986, dated 1988)
